Reference: patent publication US20120005765A1, “ANIMAL MODEL FOR PARKINSON'S DISEASE” (Saint Louis University, priority 2010, published 2012)

Assays:
α-synuclein = α-synuclein (Homo sapiens, UniProt P37840); test: DOPAL-triggered α-synuclein aggregation in test tube, Western blot; type: biochemical; details: AS 2 μM, 37° C., up to 4 h, DOPAL 1.5-1,500 μM
Method: Determination of DOPAL-triggered α-synuclein aggregation in vitro. Western blot of DOPAL-triggered AS aggregation in test tube experiments. DOPAL was dissolved in 1% benzyl alcohol, then diluted to a final concentration of 1.5-1,500 μM as described previously. AS (2 μM) was incubated at 37° C. in 20 μl of 100 mM tris-HCl buffer (pH 7.2) with or without DA, DOPAL, DOPAC, or homovanillic acid (HVA) for up to 4 h. The reaction was stopped by heating at 70° C. for 3 min in SDS buffer. The entire mixture was transferred to the appropriate gel (vide infra).
SDS-PAGE and immunoblotting. Ten micrograms of protein (estimated by Bio Rad protein reagent) was resolved by electrophoresis on 4-12% bis-tris gels run with MES SDS buffer, and 3-8% tris-acetate gels using tris-acetate running buffer. For immunoblotting, the protein was transferred to PVDF blotting membranes with […] pore size, blocked with 5% milk protein in tris buffered saline (TBS) containing 0.1% Tween 20, and incubated for 1 h with a AS 202 monoclonal antibody (1:2,500 dilution). Blots were washed five times with 5% milk protein in TBS and probed with horseradish peroxidase-conjugated anti-mouse secondary antibody (1:2,500). Blots were washed five times with TBS containing. 0.5% Tween 20 before detection with Super Signal (Pierce).
Western blot analysis was performed to analyze DOPAL-induced aggregation of α-synuclein (FIG. 1). […]

Substantia Nigra Neurons = test: Unbiased stereology of substantia nigra neurons after DOPAL injection; type: in vivo; set-up: TOTAL SNpc Neurons / TOTAL SNr Neurons / TH SNpc Neurons: dose or concentration left out as unconfirmed
Description: Neuropathological Evaluation: Stereology The SN was included in 8-10 sections of all cases counted, and its total length was approximately 1.25 mm. Mean volume of the SNpc of control rats was […], while that of the SNpr was 777,696,500 m^3. Mean volume of the SNpc in the DOPAL injected rats was 264,674,833 m^3 while that of the SNpr was 760,212,500 m^3. There was no significant difference in mean volumes of SNpc or SNpr between controls and DOPAL injected rats. The inventors first counted TH immunoreactive neurons in the SNpc on the side of the DOPAL injection and compared them to those on the non-injected side. […] However, the inventors noted that numerous SNpc neurons sometimes were not stained for TH despite robust labeling of others (FIG. 3F). Thus, the inventors compared the number of Nissl stained profiles in sections immunostained with a-syn rather than TH in the SNpc's ipsilateral to the DOPAL injections to those of control rats which had received injections of a buffered saline solution into their SN's (Table 3). […] The inventors then determined whether DOPAL was toxic to neurons in the subjacent pars reticulata of the SN. The number of neurons in the SNpr of the DOPAL-injected rats was not different from the saline-injected rats (Table 3; FIG. 4C).
The effect of DOPAL injections into the substantia nigra on neurons in either the pars compacta (SNpc) or the pars reticularis (SNpr) are shown. Control animals were injected with buffered saline while experimental animals were injected with DOPAL (4 mg/800 nl). Unbiased stereology was used to assess the number of neurons (see Methods). Means (SD); n.s.=not significant.

## O=CCc1ccc(O)c(O)c1 [DOPAL, 3,4-dihydroxyphenylacetaldehyde]
α-synuclein
  aggregation of α-synuclein oligomers in vitro: triggers dose-dependent aggregation
Substantia Nigra Neurons; DOPAL into substantia nigra, Means (SD), control 11926 (1084)
  TOTAL SNpc Neurons: 6879 (422)
Substantia Nigra Neurons; DOPAL into substantia nigra, Means (SD), control 11969 (3699)
  TH SNpc Neurons: 5884 (1365)
Substantia Nigra Neurons; DOPAL into substantia nigra, Means (SD), control 12422 (832)
  TOTAL SNr Neurons: 11761 (715)
Substantia Nigra Neurons; p=0.001
  number of Nissl-stained neurons in the SNpc, less than saline-injected rats: 43%
Substantia Nigra Neurons; p=0.032
  mean number of TH immunoreactive SNpc neurons ipsilateral, less than contralateral non-injected side: 50%
Substantia Nigra Neurons; rat, in vivo
  number of neurons in the SNpr vs saline-injected rats: not different
